We go through eight molecules from patent US5525329A, “Inhibition of phosphodiesterase in olfactory mucosa” (priority 1995, dated 1996).

“Also recorded” adds a separate entry of the source. Like-named read-outs stand apart in the source and are kept apart here. Bounds are passed on as bounds.

Data set [1] concerns phosphodiesterase, olfactory mucosa. The experiment in a line: PDE activity in homogenates of olfactory mucosa (turbinates). Type of data set: biochemical, rat. Particulars: for reduction of PDE activity / inhibition of cAMP hydrolysis / inhibition of cGMP hydrolysis: 10 μM drug; for inhibition of cAMP hydrolysis: 1 μM cAMP, no added Ca^2+. How it is done: (§1) Assays were performed with 100 μM Ca^2+ (hatched bars) or with 100 μM EGTA (solid bars).
(§2) Enzymol. […] Tissue was warmed to 37° C. and 100 μl aliquots containing 1-2 […] protein added to initiate the assay which was conducted for 20 minutes at 37° C. […] For experiments at 100 μM free Ca^2+, the reaction mix included 0.2 mM CaCl2 and 50 nM calmodulin (Sigma) where appropriate. Low Ca^2+ conditions were achieved by addition of 2.0 mM EGTA. Ca^2+ levels were measured against standards using a conductivity meter and Ca^2+ electrode (Biomedical Instrumentation Group, Philadelphia, Pa.). Following incubation, reactions were stopped by boiling for 1.5 minutes and cooling on ice, whereupon 100 μl aliquots of 5'-nucleotidase (10 units/ml in 0.1M Tris pH 8.1) were added and samples incubated for 30 minutes at 37° C. Incubation mixtures were applied to QAE-Sephadex columns pre-equilibrated with 30 mM ammonium formate, with flow through and eluate from two 1 ml washes collected in plastic scintillation vials.
Subcellular fractions were obtained as described below. Rats were anesthetized with carbon dioxide, decapitated and tissue dissected. Nasal turbinates were dissected intact and consisted of the entire olfactory mucosa, including endothelial tissue, olfactory epithelium, and overlying mucous. […] For fractionation, tissue was first centrifuged at 500×g for 5 minutes in a Sorvall RC 2B superspeed refrigerated centrifuge (DuPont, Wilmington, Del.). The crude particulate (P1) pellet was discarded and the supernatant (S1) centrifuged 20 minutes at 28,000×g. The resultant pellet (P2) was washed in BHB, centrifuged and resuspended in 5 ml BHB, and designated the membrane fraction. The supernatant (S2) was centrifuged 50 minutes at 230,000×g in Beckman L8-M ultracentrifuge (Fullerton, Calif.). The pellet (P3) was washed in BHB, recentrifuged in an ultracentrifuge, and resuspended in 2 ml BHB as the microsomal fraction. The supernatant (S3) was saved as the soluble fraction and visually inspected for absence of cloudiness or lipid droplets. In all cases, protein was assayed by the Bradford method using Coomassie Protein Assay Reagent (Pierce, Rockford, Ill.) and BSA as standard.

In another data set the test system is cGMP-inhibited PDE. Particulars: reported in literature; cited from earlier work.
Data set [2] deals with T1, phosphodiesterase, olfactory cilia (Rattus norvegicus, UniProt Q63421).
T1 construct: Tissue was prepared either as cilia, using the method of Sklar et al., (1986); from tissue; host or cells: olfactory cilia preparation
The experiment in a line: PDE activity in olfactory cilia. Type of data set: biochemical. How it is done:
as §1
(§3) Activity is graphed as a function of total cyclic nucleotides present using olfactory cilia, or mucosa with 1 μM cGMP.
(§4) FIG 4B is a graph of activity, 1 μM cGMP used as substrate: 100 μM EGTA (open circles); 100 μM Ca^2+ (filled circles); 100 μM Ca^2+ in the presence of 200 μM W-7 (filled squares).
as §2

For data set [3], the system named is high affinity cAMP-selective form of PDE. Particulars: reported in literature, cited from earlier work.
For data set [4], the system named is phosphodiesterase, olfactory cilia. The data set can be described thus: PDE activity in olfactory cilia. Type of data set: biochemical, rat. The protocol:
as §1, §3, §4, §2

Data set [5] deals with T1, phosphodiesterase, olfactory cilia. The data set can be described thus: PDE activity in olfactory cilia. The data set is classed as biochemical. The source holds these as a separate data set.
Setting [6] is: olfactory mucosa, 1 μM cGMP, 100 μM EGTA.
The mark [7] stands for this setting: 10 μM drug, presence or absence of Ca^2+.

T1 sequence (Q63421 whole entry): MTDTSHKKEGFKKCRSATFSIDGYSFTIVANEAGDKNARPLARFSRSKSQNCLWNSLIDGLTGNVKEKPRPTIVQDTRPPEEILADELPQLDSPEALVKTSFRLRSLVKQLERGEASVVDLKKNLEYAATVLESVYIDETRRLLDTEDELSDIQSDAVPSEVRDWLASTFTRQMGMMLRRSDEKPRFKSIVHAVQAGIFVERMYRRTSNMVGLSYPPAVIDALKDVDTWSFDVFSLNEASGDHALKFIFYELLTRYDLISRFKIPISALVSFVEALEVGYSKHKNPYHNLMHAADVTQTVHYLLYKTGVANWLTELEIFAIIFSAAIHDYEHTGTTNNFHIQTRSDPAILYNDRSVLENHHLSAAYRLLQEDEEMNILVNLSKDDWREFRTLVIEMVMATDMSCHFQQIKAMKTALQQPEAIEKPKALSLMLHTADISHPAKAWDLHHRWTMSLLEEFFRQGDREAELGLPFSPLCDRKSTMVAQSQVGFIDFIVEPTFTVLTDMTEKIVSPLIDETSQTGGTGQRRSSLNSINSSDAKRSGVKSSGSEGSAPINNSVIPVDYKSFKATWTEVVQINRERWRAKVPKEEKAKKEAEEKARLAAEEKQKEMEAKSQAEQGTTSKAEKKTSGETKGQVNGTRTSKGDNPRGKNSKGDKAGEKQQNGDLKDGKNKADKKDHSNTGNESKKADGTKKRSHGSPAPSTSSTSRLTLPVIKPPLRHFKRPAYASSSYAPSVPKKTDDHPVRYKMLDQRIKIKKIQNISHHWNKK

Broadly, the inhibition is how much of the control response was suppressed. Take `CC1CC(=O)NN=C1c1ccc(-n2ccnc2)cc1` (stereo not drawn) [CI 930]: the “reduction of PDE activity” value in data set [1] (100 μM Ca^2+) is “about 15%”; in data set [1] (100 μM EGTA) it was “about 30%”. Moreover, in the data set on cGMP-inhibited PDE, the “selectivity for cGMP-inhibited PDE” value is reported as “selective for cGMP-inhibited PDE”. For the same molecule, in data set [2] (10 μM drug, regardless of assay conditions, read-out: inhibition of PDE in cilia), the inhibition at 10 µM was below 10%.

Turning to `CCCCOc1cc(CC2CNC(=O)N2)ccc1OC` (stereo not drawn) [Ro20-1724], the “inhibition of olfactory PDE in the presence of calcium” value in data set [1] (olfactory PDE, presence of calcium) is “about 15%”. Further, the “inhibition of cAMP hydrolysis” value in data set [1] (olfactory mucosa, 100 μM EGTA) is listed as 66%. Also, in data set [1] (setting [6]), the “inhibition of cGMP hydrolysis” value is listed as “Neither 10 μM rolipram nor 10 μM Ro20-1724 inhibit cGMP hydrolysis”. Further, the “selective inhibition of the high affinity cAMP-selective form of PDE” value (“selective inhibition” below) in data set [3] is on record as “selectively inhibit the high affinity cAMP-selective form of PDE”; in data set [3] (listed as Ro 20-1724), “selective inhibitor of calcium/calmodulin-independent, high affinity PDE”. Besides, in data set [2] (setting [7]), the “inhibition of PDE in cilia” value is recorded as “neither rolipram (10 μM) nor Ro20-1724 (10 μM) inhibit PDE”.

Turning to `NCCCCCCNS(=O)(=O)c1cccc2c(Cl)cccc12` [W-7], the “reduction of stimulation by calmodulin” value in data set [4] (cilia, 100 μM W-7 (cAMP) or 200 μM W-7 (cGMP), 100 μM Ca^2+) is “substantially reduces stimulation by calmodulin”.

Regarding `Nc1nc2c(ncn2[C@@H]2O[C@@H]3COP(=O)(O)O[C@H]3[C@H]2O)c(=O)[nH]1` [cGMP], the “maximal enhancement of cAMP hydrolysis by cGMP” value in data set [1] (olfactory mucosa, 1 μM cGMP, 10 μM cAMP, 100 μM EGTA) is 20-30%; in data set [4] (cilia, 1 μM cGMP, 10 μM cAMP, 100 μM EGTA), 20-30%. For the same molecule, the “effect of cGMP on cAMP hydrolysis when Ca^2+ and calmodulin are added” value in data set [4] (cilia and olfactory mucosa, Ca^2+ and calmodulin added) is “diminishes markedly”.

Regarding `CCCCn1c(=O)c2c(ncn2CC(C)=O)n(CCCC)c1=O` [denbufylline], the “inhibition of cAMP hydrolysis” value in data set [1] (olfactory mucosa, 100 μM EGTA) is recorded as 64%. For the same molecule, the “inhibition of cGMP hydrolysis” value in data set [1] (setting [6]) was “about 20%”. Moreover, the inhibition at 10 µM is 15 to 20% in data set [5] (read-out: inhibition of ciliary cAMP PDE) and 15 to 20% in data set [2] (10 μM drug, 1 μM cGMP, presence or absence of Ca^2+, read-out: inhibition of ciliary cGMP PDE). Further, the “selective inhibition” value in data set [3] is recorded as “selectively inhibit the high affinity cAMP-selective form of PDE”.

As for `Cc1[nH]c(=O)c(C#N)cc1-c1ccncc1` [milrinone], the figures for the “reduction of PDE activity” value in data set [1] (100 μM Ca^2+) and in data set [1] (100 μM EGTA) were “about 15%” and “about 30%”, respectively. The “selectivity for cGMP-inhibited PDE” value in the data set on cGMP-inhibited PDE is listed as “selective for cGMP-inhibited PDE”. In addition, the inhibition at 10 µM in data set [2] (read-out: inhibition of PDE in cilia) is below 10%.

On to `COc1ccc(C2CNC(=O)C2)cc1OC1CCCC1` (stereo not drawn) [rolipram], for which the “inhibition of cAMP hydrolysis” value in data set [1] (olfactory mucosa, 100 μM EGTA) came out at 49%. In addition, in data set [1] (setting [6]), the “inhibition of cGMP hydrolysis” value is recorded as “Neither 10 μM rolipram nor 10 μM Ro20-1724 inhibit cGMP hydrolysis”. Besides, in data set [3], the “selective inhibition” value is “selectively inhibited; also recorded: selectively inhibit the high affinity cAMP-selective form of PDE”. In addition, in data set [2] (setting [7]), the “inhibition of PDE in cilia” value was “neither rolipram (10 μM) nor Ro20-1724 (10 μM) inhibit PDE”.

calmodulin: the “effect of calmodulin on stimulation of enzyme activity by Ca^2+” value in data set [1] (mucosal homogenates, 1 μM cAMP or cGMP) is “further enhances the stimulation of enzyme activity by Ca^2+”. Besides, the EC50 in data set [5] (cilia, 1 μM cAMP, read-out: half maximal stimulation of PDE activity by calmodulin) was 10 nM; in data set [2] (cilia, 1 μM cGMP, read-out: half maximal stimulation of PDE activity by calmodulin), 10 nM.
